The values that follow are results of earlier work, collected in publication PMC5731934, “Modifying glycyrrhetinic acid liposomes with liver-targeting ligand of galactosylated derivative: preparation and evaluations” (Oncotarget, 2017).

Details of this data set: method as in PMID 11752037.

On to `CC1(C)[C@@H](O)CC[C@]2(C)[C@H]3C(=O)C=C4[C@@H]5C[C@@](C)(C(=O)O)CC[C@]5(C)CC[C@@]4(C)[C@]3(C)CC[C@@H]12` [GA, Glycyrrhetinic acid], for which the solubility in water was less than 10 µg/mL.
